Each block holds one compound with its values, some of them ahead of it.
Assay: gradient 5% acetonitrile 3 min, to 50% in 2 min, to 85% in 15 min, held 3 min, 100 µL/min
Settings: column: Zorbax Extend-C18 2.1 x 50 mm; eluents: water / acetonitrile, 0.1% formic acid
Summary of the method: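 Using water and acetonitrile that each contained 0.1% formic acid, mixtures of ~100 pure standards were separated at 100 μL/min on a Zorbax Extend-C18 column (2.1 × 50 mm, 1.8 μm). The HPLC fed a quadrupole time-of-flight mass spectrometer working in positive and negative ionization mode, with dead and dwell volumes of 40 μL and 900 μL. Data were acquired over 3 months. Retention time was read from computationally picked adduct peaks after manual inspection of each.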

SMILES: COc1cccc(-c2nc(-c3ccc4oc(C)nc4c3)no2)c1OC
RP-LC retention time: 1020 s

SMILES: COCCc1noc(-c2cnc3nc(C)ccc3c2NCc2cccc(Cl)c2)n1
RP-LC retention time: 711 s

SMILES: CC(=O)Nc1c(C)noc1/C=C\c1ccc(C)c(S(=O)(=O)N2CCN(c3ccccn3)CC2)c1
RP-LC retention time: 666 s

SMILES: C=CC(=O)N1CCCC(n2nc(-c3ccc(Oc4ccccc4)cc3)c3c(N)ncnc32)C1 (configuration not stated)
RP-LC retention time: 850 s

SMILES: Cc1ccc(C)c(CS(=O)(=O)N2CCC(CN3CCCCCC3)CC2)c1
RP-LC retention time: 700 s

SMILES: O=C(CN1CCOCC1)N1CC(c2nc(CCOCC3CC3)no2)C1
RP-LC retention time: 577 s

SMILES: COc1ccc2ncc(S(=O)(=O)c3ccc(C)c(Cl)c3)c(OC)c2c1
RP-LC retention time: 1100 s

SMILES: Cc1ccccc1-n1ccn(Cc2nc(-c3ccc(F)c(Cl)c3)no2)c(=O)c1=O
RP-LC retention time: 942 s

SMILES: COc1ccc(N2CC(c3noc(-c4cc(F)ccc4F)n3)CC2=O)cc1 (configuration not stated)
RP-LC retention time: 849 s

SMILES: COCC(=O)Nc1cnc(N2CCCCC2)nc1
RP-LC retention time: 683 s

SMILES: CC(C)Cn1cc(S(=O)(=O)NCc2ccccc2Cl)c2cccnc21
RP-LC retention time: 1020 s

SMILES: COc1ccc([N+](=O)[O-])cc1NC(=O)c1cnc(N2CCN(c3ncccn3)CC2)c2ccccc12
RP-LC retention time: 973 s

SMILES: Cc1cccc(Nc2cc(C)nc3ccnn23)c1
RP-LC retention time: 613 s

SMILES: c1ccc2c(CCNc3ccc(Nc4ccncc4)cc3)c[nH]c2c1
RP-LC retention time: 1110 s

SMILES: CCOc1cc(Cl)c(S(=O)(=O)NCc2ccccn2)cc1Cl
RP-LC retention time: 715 s

SMILES: COc1ccc2cccc(NC(=O)c3ccc(F)c(F)c3)c2n1
RP-LC retention time: 1200 s

SMILES: CCOc1ccc(CNC(=O)COc2nc(C)nc3oc(C)c(C)c23)cc1
RP-LC retention time: 892 s

SMILES: CCC(C)N(C)C(=O)c1cc2ccccc2c(-c2ccccc2Cl)n1 (configuration not stated)
RP-LC retention time: 1110 s

SMILES: CN(c1cccc(C(F)(F)F)c1)S(=O)(=O)c1cc2n(c1)CCCNC2=O
RP-LC retention time: 759 s

SMILES: Cc1ccc(-c2csc(NC(=O)CCc3nc(CSc4nc5ccc(C)cc5[nH]4)no3)n2)cc1
RP-LC retention time: 852 s

SMILES: CCOC(=O)C1=C(N)Oc2cc(C)n(CCN(C)C)c(=O)c2C1c1ccccc1F (configuration not stated)
RP-LC retention time: 648 s

SMILES: CCCCn1cc(S(=O)(=O)Nc2ccc(C)cc2F)c2cccnc21
RP-LC retention time: 980 s

SMILES: COCCCNC(=O)C1(C)Cn2nc(-c3ccccc3)cc2C(=O)N1Cc1ccc(OC)cc1 (configuration not stated)
RP-LC retention time: 865 s

SMILES: CCCN1C(=O)COc2ccc(-c3noc(-c4cccc(C)c4)n3)cc21
RP-LC retention time: 1320 s

SMILES: CCS(=O)(=O)N1CC(=O)N(c2cccc(Cl)c2C)C(C)(C(=O)NCc2ccccc2)C1 (configuration not stated)
RP-LC retention time: 906 s

SMILES: O=C(Nc1ccon1)c1ccc(-n2cccn2)nn1
RP-LC retention time: 659 s

SMILES: C=CCNC(=O)c1cn(-c2ccc(-c3nc(C4CC4)no3)cn2)cn1
RP-LC retention time: 788 s

SMILES: Cc1ncc([N+](=O)[O-])n1CC(O)CCl (configuration not stated)
RP-LC retention time: 677 s

SMILES: COc1cc(C2C(C(=O)N3CCCCC3)=C(C)NC3=C2C(=O)CC(C)(C)C3)cc(OC)c1O (configuration not stated)
RP-LC retention time: 1050 s

SMILES: Cc1nc2nc(-c3ccc(C(C)(C)C)cc3)nn2c(C)c1CC(=O)N1CCN(C)CC1
RP-LC retention time: 682 s

SMILES: COc1ccc(CNC(=O)c2[nH]c3cc(C)sc3c2CN(C)C)cc1
RP-LC retention time: 664 s

SMILES: COc1ccc(NC(=O)C2(C)Oc3cccnc3N(C)C2=O)c(OC)c1 (configuration not stated)
RP-LC retention time: 815 s

SMILES: CCC(CC)C(=O)N1CCN(c2nc3cccnc3n(CC)c2=O)CC1
RP-LC retention time: 942 s

SMILES: Cc1cc(N2CCN(C)CC2)nc(N2CCN(C(=O)c3ccc(-c4ccccc4)cc3)CC2)n1
RP-LC retention time: 585 s

SMILES: O=C1CCN(S(=O)(=O)c2cccc3nsnc23)CCCCCCN1
RP-LC retention time: 724 s

SMILES: O=S(=O)(CCc1noc(-c2nccc3ccccc23)n1)c1ccccc1
RP-LC retention time: 890 s

SMILES: O=C(NCCc1c[nH]c2ccccc12)c1ccc(N2C(=O)CCS2(=O)=O)cc1Cl
RP-LC retention time: 777 s

SMILES: COc1cccc(NC(=O)c2c(O)c3cccnc3n(-c3ccccc3)c2=O)c1
RP-LC retention time: 1220 s

SMILES: O=C(Cn1ncc2c(N3CCN(c4ccccn4)CC3)ncnc21)Nc1cc(F)cc(F)c1
RP-LC retention time: 634 s

SMILES: Cc1cc(C)c2c(-n3cccc3)nn(CC(=O)NCC3CCCO3)c2n1 (configuration not stated)
RP-LC retention time: 753 s

SMILES: CCc1noc(-c2ccnc(-n3ncc(C(=O)N4CCOCC4)c3C)c2)n1
RP-LC retention time: 760 s

SMILES: Cc1cc2c(cc1S(=O)(=O)N1CCCC1C(=O)N1CCc3ccccc31)OC(C)C(=O)N2 (configuration not stated)
RP-LC retention time: 825 s

SMILES: Cc1ccc(NC(=O)CSc2nc(=O)n(CCN(C)C)c3c2CCC3)cc1F
RP-LC retention time: 646 s

SMILES: COc1cc(=O)n(-c2ccccc2C)nc1C(=O)Nc1ccc(OC(F)(F)F)cc1
RP-LC retention time: 880 s

SMILES: O=C(CCc1nc(CSc2nnc(-c3ccccc3)o2)no1)Nc1ccc(F)cc1
RP-LC retention time: 892 s

SMILES: COc1ccc(S(=O)(=O)NCc2cccnc2-c2cccc(C)c2)cc1
RP-LC retention time: 695 s

SMILES: Cc1ccc(-c2ccnc3nc(-c4ccccc4)nn23)cc1
RP-LC retention time: 1020 s

Other lines, results leading:

RP-LC retention time: 1060 s
SMILES: CCCn1c(=O)sc2cc(S(=O)(=O)N3CCC(C(=O)Nc4ccc(C)c(F)c4)CC3)ccc21

RP-LC retention time: 628 s
SMILES: Cc1[nH]c(C(=O)N2CCC(CC(=O)N3CCN(c4ccccn4)CC3)CC2)c(C)c1C(=O)OC(C)C

RP-LC retention time: 777 s
SMILES: Cn1nc(-c2nc(Cc3ccccc3)no2)c2c1CCN(C(=O)C1CCCO1)C2 (configuration not stated)

RP-LC retention time: 1110 s
SMILES: CCCOc1c(C(=O)OC)sc2ccc(NC(=O)c3cc(-c4cccs4)[nH]n3)cc12

RP-LC retention time: 580 s
SMILES: Cc1ccc2c(Nc3ccc(CC(=O)O)cc3)c(C(=O)N3CCCCC3C)cnc2n1 (configuration not stated)

RP-LC retention time: 648 s
SMILES: Cc1nc(C(=O)Nc2ccccc2)c(C)n1C1CCN(S(C)(=O)=O)CC1

RP-LC retention time: 1020 s
SMILES: O=C(Nc1ccc(F)c(F)c1)C1CCCN(C(=O)Cc2cccc3ccccc23)C1 (configuration not stated)

RP-LC retention time: 679 s
SMILES: Cn1cc(CCNC(=O)Nc2ccc(F)cc2)c2cccnc21

RP-LC retention time: 946 s
SMILES: Cc1ccc(Cl)cc1NC(=O)NCCc1cn(CC(C)C)c2ncccc12

RP-LC retention time: 867 s
SMILES: CCN1C(=O)C2(CCN(C(=O)NC3CCCCC3)CC2)c2ccccc21

RP-LC retention time: 658 s
SMILES: Cc1ccc(S(=O)(=O)c2ccc(C(=O)N3CCN(c4ccccn4)CC3)cn2)cc1C

RP-LC retention time: 1010 s
SMILES: COC(=O)COC(=O)c1cn(-c2cccc(Cl)c2)c(=O)c2ccccc12

RP-LC retention time: 821 s
SMILES: CCOC(=O)c1ccccc1NC(=O)Cn1nc2n(c1=O)CCCCC2

RP-LC retention time: 692 s
SMILES: O=C(NC1CCN(c2cc(-c3ccccc3)[nH]n2)C1)c1ccccc1Cl (configuration not stated)

RP-LC retention time: 844 s
SMILES: Cc1ccc(C2Cn3nnc(C(=O)N4CCN(C(=O)c5ccco5)CC4)c3CO2)cc1 (configuration not stated)

RP-LC retention time: 986 s
SMILES: Cc1nn(-c2ccccc2)c(C)c1S(=O)(=O)N1CCC(C(=O)Nc2cccc(F)c2)CC1

RP-LC retention time: 710 s
SMILES: CCCNC(=O)C1CCCN(c2ccc(SCC(=O)Nc3ccc(Br)cc3)nn2)C1 (configuration not stated)

RP-LC retention time: 684 s
SMILES: NC(=O)C1CCN(C(=O)Cc2csc(NC(=O)Nc3ccc(Cl)cc3)n2)CC1

RP-LC retention time: 1090 s
SMILES: Cc1ccccc1CNC(=O)C1(C)CCCN(C(=O)Nc2cc(Cl)ccc2C)C1 (configuration not stated)

RP-LC retention time: 734 s
SMILES: COC(=O)c1ccc(NC(=O)Cc2csc3nc(-c4ccc(OC)c(OC)c4)cn23)cc1

RP-LC retention time: 605 s
SMILES: CN1CCN(C(=O)c2ccc(S(=O)(=O)c3ccccc3)s2)CC1

RP-LC retention time: 626 s
SMILES: COc1ccc(NC(=O)Cn2c(N3CCCC3)nc(C)cc2=O)c(OC)c1

RP-LC retention time: 982 s
SMILES: COc1ccc(-c2csc(NC(=O)CCn3c(=O)sc4ccccc43)n2)cc1

RP-LC retention time: 933 s
SMILES: O=C(NCc1ccc(N2CCOCC2)cc1)C1CCCN(c2nccnc2Sc2ccccc2)C1 (configuration not stated)

RP-LC retention time: 748 s
SMILES: O=C(O)c1ccc2c(c1)N(C(=O)c1ccc(F)cc1)CC2

RP-LC retention time: 993 s
SMILES: COc1ccc(NC(=O)N2CCN(c3nc4ccccc4nc3C(F)(F)F)CC2)cc1

RP-LC retention time: 1100 s
SMILES: O=C(Nc1cccc(Cl)c1)c1cn(CC2CCCO2)cc2c(=O)n(-c3ccccc3)nc1-2 (configuration not stated)

RP-LC retention time: 914 s
SMILES: COc1ccc(-c2nnc(SCC(=O)N3CCC(C)CC3)o2)cc1

RP-LC retention time: 612 s
SMILES: Cc1cc(=O)n(CC(=O)Nc2c(C)cccc2C)c(N2CCOCC2)n1

RP-LC retention time: 728 s
SMILES: O=C(CC1CCN(C(=O)c2ccc3oc(-c4ccccc4)nc3c2)CC1)NC1CC1

RP-LC retention time: 675 s
SMILES: O=C(CSc1ccc(N2CCCC(C(=O)NC3CC3)C2)nn1)Nc1ccc(F)cc1Cl (configuration not stated)

RP-LC retention time: 1370 s
SMILES: COc1ccc(-n2c(=O)c(C(=O)Nc3cccc(Cl)c3)c(O)c3cccnc32)cc1

RP-LC retention time: 835 s
SMILES: CCNC(=O)C1CCN(c2nc3ccc(-c4ccccc4)nc3s2)CC1

RP-LC retention time: 629 s
SMILES: NC1=NC(c2ccc(Cl)cc2)N(c2ccc(S(N)(=O)=O)cc2)C(N)=N1 (configuration not stated)

RP-LC retention time: 902 s
SMILES: CC1=C(c2ccc(C)cc2)S(=O)(=O)N=C1N1CCC(NC(=O)C2CCCO2)CC1 (configuration not stated)

RP-LC retention time: 964 s
SMILES: O=C(Cn1nc2c(N3CCN(c4ccccc4)CC3)nccn2c1=O)Nc1cccc(Cl)c1

RP-LC retention time: 812 s
SMILES: CC1Oc2ccc(S(=O)(=O)N3CCC(C(=O)NCc4ccc(F)cc4)CC3)cc2NC1=O (configuration not stated)

RP-LC retention time: 596 s
SMILES: CCc1ccc(NC(=O)Cn2c(N)nc(C)c(C)c2=O)cc1

RP-LC retention time: 825 s
SMILES: COc1ccc(Cl)cc1S(=O)(=O)N1CCC(n2cnnc2-c2ccccc2)CC1

RP-LC retention time: 1260 s
SMILES: O=S(=O)(c1ccc(-c2noc(-c3ccc(Cl)cc3)n2)cc1)N1CCCC1
